The source of these data is PMC3844902 (British Journal of Cancer, 2013).

SMILES strings stand for the structures.

The series in a line: Safety and tolerability. Type of series: in vivo, Japanese patients. The note with it: just after meals, in combination with erlotinib 150 mg QD.

For the compound `O=C1NC(=O)[C@@H](c2cn3c4c(cccc24)CCC3)[C@@H]1c1c[nH]c2ccccc12` [tivantinib], the “Recommended phase II dose (RP2D) of tivantinib” value is, setting by setting: (Japanese EMs) 360 mg BID; (Japanese PMs) 240 mg BID.
